Test results: patent US20040019027A1, “Method of treating cerebrotendinous xanthomatosis” (priority 2002, published 2004)

Legend:
mouse PXR = target: T1, mouse PXR (Mus musculus, UniProt O54915); experiment: GAL-mouse PXR luciferase reporter gene assay in transfected CV-1 cells; format: cell-based; settings: for fold activation of GAL-mouse PXR / activation of GAL-mouse PXR (in words): 10 μM; for activation of GAL-mouse PXR (in words): CV-1 cells, FIG. 3(a), FIG. 8(a)
T1 sequence (O54915 104-431): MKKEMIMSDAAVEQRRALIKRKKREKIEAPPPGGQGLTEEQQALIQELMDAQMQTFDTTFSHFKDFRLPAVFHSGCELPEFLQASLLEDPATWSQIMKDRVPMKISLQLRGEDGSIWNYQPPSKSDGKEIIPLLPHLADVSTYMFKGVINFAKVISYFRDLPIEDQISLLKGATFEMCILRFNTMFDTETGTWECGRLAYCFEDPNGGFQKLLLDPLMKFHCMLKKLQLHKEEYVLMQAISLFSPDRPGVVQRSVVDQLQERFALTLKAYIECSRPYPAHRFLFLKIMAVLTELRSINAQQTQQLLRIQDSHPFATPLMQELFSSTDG
Procedure: (§1) CV-1 cells were transiently transfected with a GAL-mouse PXR expression vector, a GAL4 reporter construct, and a β-galactosidase vector as an internal control. Where noted, the bile acid transporter NTCP was added to the transfection to promote the transport of membrane-impermeable bile acids. Transfected cells were exposed to the indicated compounds (10 μM each), and fold activation was determined using luciferase and β-galactosidase enzyme activity assays. […] The transfected CV-1 cells were treated with multiple concentrations of each sterol. Error bars in this figure and subsequent figures represent the standard error of the mean (SEM) from representative experiments.
It is questioned whether β-cholestane-3α, 7α, 12α-triol (Triol) levels were elevated in whole liver extracts from CYP27 −/− mice. To show the level of 5β-cholestane-3α, 7α, 12α-triol in mouse liver extract, wild-type or CYP27 −/−mouse liver tissue (0.5 g) was extracted with 7.5 ml of ethyl acetate/methanol (2:1, vol/vol) along with 5β-cholestane-3β,5α,6β-triol (25 μg) as an internal control for extraction efficiency. […] The extraction was repeated three times, and the organic fraction was pooled and evaporated. To remove the vast excess of cholesterol that interferes with subsequent gas chromatography-mass spectroscopy analysis, the evaporated residue was dissolved in 0.5 ml of chloroform/acetone (35:25, vol/vol) and applied to a Bond Elut SI cartridge (Varian, 500 mg). Cholesterol was removed by washing with 6 ml of chloroform/acetone (35:25, vol/vol), and sterols were eluted with 7 ml of chloroform/acetone/methanol (35:25:20, vol/vol/vol). The sterol fraction was evaporated and dissolved in acetonitrile, and a portion was silylated with N,O-bis(trimethylsilyl)-trifluoroacetamide containing 1% trimethylchlorosilane (Pierce). The silylated material was analyzed by using a Shimadzu model GC-17A gas chromatograph with a QP5000 mass spectral detector and a Hewlett-Packard Ultra 2 (cross-linked-siloxane) column. The injector port was kept at 250° C., interface temperature was kept at 280° C., and oven temperature was kept at 50° C. followed by a gradient of 30° C. min^−1 up to 300° C. The electron impact ionization source was at 70 eV. 5β-cholestane-3α, 7α, 12α-triol levels were determined by comparison to a standard curve. For transfection studies, the sterol fraction was dissolved in DMSO and added to the cell-culture media. containing DMEM with 10% delipidated FBS.

mice = experiment: Tribromoethanol-induced sleep test; format: in vivo, mouse; settings: i.p. 0.35 mg/g
Excerpt: Wild type and cyp27-null mice received an i.p. injection of tribromoethanol, and their individual sleep times are plotted. Wild type mice are represented by squares and CYP27-null mice (CYP27 −/−) are represented by circles. Wild type male, n=6; cyp27-1-male, n=5; Wild type female, n=6; cyp27-1-female, n=6. **, P<0.01; ***, P<0.001.
Because PXR is a master regulator of small-molecule clearance, continuous activation of PXR in CYP27-null mice should produce a physiologic state of enhanced resistance to endogenous and exogenous toxins. To test this in a physiological setting, mice received an i.p. injection of the anesthetic agent tribromoethanol (0.35 mg/g of body weight). Drug-induced anesthesia was measured until the animals had regained sufficient consciousness to fully right themselves. […] Thus, the tribromoethanol-induced sleep test provides a direct and quantitative measure of hepatic PXR activity in live animals. […] In female mice, the difference was even more significant: 35.8±1.6 min for CYP27-null mice compared with 49.6±2.0 min for WT (P<0.001). […] When 5β-cholestane-3α, 7α, 12α-triol itself is accumulating to pathological levels, the ability of this sterol to activate cyp3a11 (FIG. 5) becomes highly significant as CYP3A establishes an alternate or salvage pathway for the elimination of excess 5β-cholestane-3α, 7α, 12α-triol (FIG. 1). […]

CYP3A = settings: cited from earlier work
full-length mouse PXR = target: T2, full-length mouse PXR (Mus musculus, UniProt O54915); experiment: Full-length mouse PXR reporter assay with rat cyp3a regulatory element in CV-1 cells; format: cell-based; settings: 10 μM, FIG. 3(b)
T2 sequence (O54915 1-431): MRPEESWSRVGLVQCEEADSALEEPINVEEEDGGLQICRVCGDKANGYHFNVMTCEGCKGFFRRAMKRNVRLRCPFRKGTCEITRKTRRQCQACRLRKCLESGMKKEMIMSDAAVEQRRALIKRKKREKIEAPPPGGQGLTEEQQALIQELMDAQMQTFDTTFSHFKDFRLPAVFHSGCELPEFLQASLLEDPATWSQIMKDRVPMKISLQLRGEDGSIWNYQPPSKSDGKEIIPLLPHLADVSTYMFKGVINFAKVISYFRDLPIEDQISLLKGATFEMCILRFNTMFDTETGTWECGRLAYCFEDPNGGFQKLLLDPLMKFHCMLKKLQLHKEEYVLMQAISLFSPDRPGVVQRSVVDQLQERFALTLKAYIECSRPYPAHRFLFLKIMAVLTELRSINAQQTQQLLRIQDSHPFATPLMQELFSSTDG
Procedure: as §1, with “assays. PCN refers to pregnenolone-16α-carbonitrile which is an effective agonist to mouse PXR.” for “assays.”, “experiments. In some cases, the error bars are not visible because they are negligible relative to the scale of the figure” for “experiments.”
To further confirm that 5β-cholestane-3α, 7α, 12α-triol and 5β-cholestan-3α, 7α, 12α, 25-tetrol activate mouse PXR, the effect of these compounds on full-length mouse PXR was examined using a reporter construct containing a regulatory element from the rat cyp3a gene that binds to the DNA binding domain of mouse PXR. Blumberg et al., SXR, a novel steroid and xenobioticsensing nuclear receptor, Gene & Dev. 12: 3195-3205 (1998).

CYP3A4 = settings: reported by Furster & Wikvall 1999; read-out: Michaelis constant (Km) as a CYP3A4 substrate; cited from earlier work
[1] = target: T3, human PXR ligand binding domain (Homo sapiens, UniProt O75469); experiment: In vitro ligand displacement assay with [3H]SR12813; settings: 37.5 nM [3H]SR12813; 5 μM hyperforin, 30 μM Triol, 30 μM Tetrol; FIG. 4
T3 sequence (O75469 107-434): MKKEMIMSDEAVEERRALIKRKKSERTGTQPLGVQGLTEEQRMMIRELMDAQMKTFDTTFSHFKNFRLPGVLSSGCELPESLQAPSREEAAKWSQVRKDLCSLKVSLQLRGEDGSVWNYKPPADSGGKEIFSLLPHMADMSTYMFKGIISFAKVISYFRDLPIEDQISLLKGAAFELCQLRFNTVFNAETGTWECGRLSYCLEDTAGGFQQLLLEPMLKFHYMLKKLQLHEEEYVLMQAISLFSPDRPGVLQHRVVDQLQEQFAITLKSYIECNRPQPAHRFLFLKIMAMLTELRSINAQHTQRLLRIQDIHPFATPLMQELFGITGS
Procedure: The amount of [^3H]SR12813 associated with human PXR is expressed in cpm.
To determine whether a molecule or compound interacts directly with a PXR or is a PXR ligand, an in vitro ligand displacement assay is commonly used. […] In the ligand displacement assay, the ligand binding domain of a PXR is synthesized or expressed and purified. A known PXR ligand is radio-labeled and incubated with the purified ligand binding domain of the PXR. A molecule or compound suspected to be a PXR ligand is then added into the incubated mixture. Radioactivity reading is taken using a scintillation counter. If the molecule or compound competes with the known PXR ligand for the ligand binding domain of the PXR, the molecule or compound is expected to displace some of the radio-labeled known PXR agonist and reduce the radioactivity reading. Accordingly, the reduction of radioactivity reading indicates whether the molecule or compound is a PXR ligand and the extent to which the molecule or compound competes with the known PXR ligand.
An in vitro ligand displacement assay was used to determine whether 5β-cholestane-3α, 7α, 12α-triol interacts directly with the ligand binding domain of PXR. Because radiolabeled [^3H]SR12813 are available for human PXR but not mouse PXR, human PXR was used to examine whether 5β-cholestane-3α, 7α, 12α-triol could compete for binding of human PXR to a tritiated SR12813. […]

With `C[C@H](CCCC(C)(C)O)[C@H]1CC[C@H]2[C@@H]3[C@H](O)C[C@@H]4C[C@H](O)CC[C@]4(C)[C@H]3C[C@H](O)[C@]12C` [5β-cholestane-3α, 7α, 12α, 25-tetrol] the “fold activation of GAL-mouse PXR” value (mouse PXR) was 16 fold.
In the case of `C[C@H](CCC(=O)O)[C@H]1CC[C@H]2[C@@H]3[C@H](O)C[C@@H]4C[C@H](O)CC[C@]4(C)[C@H]3CC[C@]12C` [chenodeoxycholic acid], the “activation of GAL-mouse PXR (in words)” value (mouse PXR) is reported as “failed to activate mouse PXR”.
For `OCC(Br)(Br)Br` [tribromoethanol], the “time to awakening after tribromoethanol (mean±SEM)” value (shortened to “time to awakening … (mean±SEM)”) (mice; female CYP27-null mice) was 35.8 ± 1.6 min, the “time to awakening … (mean±SEM)” value (mice; female WT mice) was 49.6 ± 2.0 min and the “time to awakening … (mean±SEM)” value (mice; male CYP27-null mice) was 30.6 ± 2.9 min. The “time to awakening … (mean±SEM)” value (mice; male WT mice) was 42.2 ± 1.9 min.
For `COc1cc2c(cc1O)CCN[C@]21CS[C@@H]2c3c(OC(C)=O)c(C)c4c(c3[C@H](COC1=O)N1[C@@H]2[C@H]2c3c(cc(C)c(OC)c3O)C[C@@H]([C@@H]1O)N2C)OCO4` [ET-743, Ecteinascidin-743], the “inhibition of the induction of CYP3A by SR12813 (in words)” value (CYP3A) is given as “completely inhibits”.
With `CC(C)CCC[C@@H](C)[C@H]1CC[C@H]2[C@@H]3C[C@@H](O)[C@@]4(O)C[C@@H](O)CC[C@]4(C)[C@H]3CC[C@]12C` [5β-cholestane-3β,5α,6β-triol] the “activation of GAL-mouse PXR (in words)” value (mouse PXR) was “does not activate mouse PXR”.
For `CC(C)CCC[C@@H](C)[C@H]1CC[C@H]2[C@@H]3[C@H](O)C[C@@H]4C[C@H](O)CC[C@]4(C)[C@H]3C[C@H](O)[C@]12C` [5β-cholestane-3α, 7α, 12α-triol], the “activation of full-length mouse PXR (in words)” value (full-length mouse PXR) was “activated full-length mouse PXR”, the EC50 (mouse PXR) was ≥ 3 µM and the “fold activation of GAL-mouse PXR” value (mouse PXR) was 31 fold. The Km (CYP3A4) was 6 µM.
For `CC(CCC[C@@H](C)[C@H]1CC[C@H]2[C@@H]3[C@H](O)C[C@@H]4C[C@H](O)CC[C@]4(C)[C@H]3C[C@H](O)[C@]12C)C(=O)O` (stereo partly drawn) [5β-cholestanoic acid-3α,7α,12α-triol], the “displacement of [3H]SR12813 from human PXR (in words)” value [1] was “failed to displace” and the “activation of GAL-mouse PXR (in words)” value (mouse PXR) was “failed to activate mouse PXR”.
